Reference: PubChem BioAssay (NCI)
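Exposure lasted 48 hours, with cells grown in 96-well plates and compounds tested at five concentrations. Here, GI50 denotes the concentration required for 50% inhibition of growth. TGI is the concentration that stops growth completely.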

Experiments:
Experiment in all cases: NCI-60 cell line screen, 48 h
786-0 renal = system: 786-0 renal
A498 renal = system: A498 renal
A549 NSCLC = system: A549 NSCLC
ACHN renal = system: ACHN renal
BT-549 breast = system: BT-549 breast
CAKI-1 renal = system: CAKI-1 renal
CCRF-CEM leukemia = system: CCRF-CEM leukemia
COLO 205 colon = system: COLO 205 colon
DU-145 prostate = system: DU-145 prostate
EKVX NSCLC = system: EKVX NSCLC
HCT-116 colon = system: HCT-116 colon
HCT-15 colon = system: HCT-15 colon
HL-60(TB) leukemia = system: HL-60(TB) leukemia
HOP-62 NSCLC = system: HOP-62 NSCLC
HOP-92 NSCLC = system: HOP-92 NSCLC
HS 578T breast = system: HS 578T breast
HT29 colon = system: HT29 colon
IGROV1 ovarian = system: IGROV1 ovarian
K-562 leukemia = system: K-562 leukemia
KM12 colon = system: KM12 colon
LOX IMVI melanoma = system: LOX IMVI melanoma
M14 melanoma = system: M14 melanoma
MALME-3M melanoma = system: MALME-3M melanoma
MCF7 breast = system: MCF7 breast
MDA-MB-231 breast = system: MDA-MB-231 breast
MDA-MB-435 = system: MDA-MB-435
MDA-N = system: MDA-N
MOLT-4 leukemia = system: MOLT-4 leukemia
NCI-H23 lung = system: NCI-H23 lung
NCI-H460 lung = system: NCI-H460 lung
NCI-H522 lung = system: NCI-H522 lung
NCI/ADR-RES ovarian = system: NCI/ADR-RES ovarian
OVCAR-3 ovarian = system: OVCAR-3 ovarian
OVCAR-4 ovarian = system: OVCAR-4 ovarian
OVCAR-5 ovarian = system: OVCAR-5 ovarian
OVCAR-8 ovarian = system: OVCAR-8 ovarian
PC-3 prostate = system: PC-3 prostate
RPMI-8226 leukemia = system: RPMI-8226 leukemia
RXF 393 renal = system: RXF 393 renal
SF-268 CNS = system: SF-268 CNS
SF-295 CNS = system: SF-295 CNS
SF-539 CNS = system: SF-539 CNS
SK-MEL-2 melanoma = system: SK-MEL-2 melanoma
SK-MEL-28 melanoma = system: SK-MEL-28 melanoma
SK-MEL-5 melanoma = system: SK-MEL-5 melanoma
SK-OV-3 ovarian = system: SK-OV-3 ovarian
SN12C renal = system: SN12C renal
SNB-19 CNS = system: SNB-19 CNS
SNB-75 CNS = system: SNB-75 CNS
SR leukemia = system: SR leukemia
SW-620 colon = system: SW-620 colon
T-47D breast = system: T-47D breast
TK-10 renal = system: TK-10 renal
U251 CNS = system: U251 CNS
UACC-257 melanoma = system: UACC-257 melanoma
UACC-62 melanoma = system: UACC-62 melanoma
UO-31 renal = system: UO-31 renal
NCI-H226 lung = system: NCI-H226 lung

Structure (SMILES): C/C(=N\[N+](C)(C)C)c1ccc(C)c(C)c1
- GI50 (786-0 renal): > 100 µM
- TGI (786-0 renal): > 100 µM
- TGI (A498 renal): > 100 µM
- TGI (A549 NSCLC): > 100 µM
- GI50 (ACHN renal): > 100 µM
- TGI (ACHN renal): > 100 µM
- TGI (BT-549 breast): > 100 µM
- GI50 (CAKI-1 renal): > 100 µM
- TGI (CAKI-1 renal): > 100 µM
- TGI (CCRF-CEM leukemia): > 100 µM
- TGI (COLO 205 colon): 38.3 µM
- TGI (DU-145 prostate): > 100 µM
- TGI (EKVX NSCLC): > 100 µM
- TGI (HCT-116 colon): > 100 µM
- GI50 (HCT-15 colon): > 100 µM
- TGI (HCT-15 colon): > 100 µM
- TGI (HL-60(TB) leukemia): > 100 µM
- GI50 (HOP-62 NSCLC): > 100 µM
- TGI (HOP-62 NSCLC): > 100 µM
- GI50 (HOP-92 NSCLC): > 100 µM
- TGI (HOP-92 NSCLC): > 100 µM
- GI50 (HS 578T breast): > 100 µM
- TGI (HS 578T breast): > 100 µM
- TGI (HT29 colon): > 100 µM
- TGI (IGROV1 ovarian): > 100 µM
- TGI (K-562 leukemia): > 100 µM
- TGI (KM12 colon): > 100 µM
- GI50 (LOX IMVI melanoma): > 100 µM
- TGI (LOX IMVI melanoma): > 100 µM
- GI50 (M14 melanoma): > 100 µM
- TGI (M14 melanoma): > 100 µM
- GI50 (MALME-3M melanoma): > 100 µM
- TGI (MALME-3M melanoma): > 100 µM
- GI50 (MCF7 breast): > 100 µM
- TGI (MCF7 breast): > 100 µM
- GI50 (MDA-MB-231 breast): > 100 µM
- TGI (MDA-MB-231 breast): > 100 µM
- TGI (MDA-MB-435): > 100 µM
- TGI (MDA-N): > 100 µM
- GI50 (MOLT-4 leukemia): > 100 µM
- TGI (MOLT-4 leukemia): > 100 µM
- TGI (NCI-H23 lung): > 100 µM
- TGI (NCI-H460 lung): > 100 µM
- TGI (NCI-H522 lung): > 100 µM
- GI50 (NCI/ADR-RES ovarian): > 100 µM
- TGI (NCI/ADR-RES ovarian): > 100 µM
- TGI (OVCAR-3 ovarian): > 100 µM
- TGI (OVCAR-4 ovarian): > 100 µM
- TGI (OVCAR-5 ovarian): > 100 µM
- TGI (OVCAR-8 ovarian): > 100 µM
- TGI (PC-3 prostate): > 100 µM
- TGI (RPMI-8226 leukemia): > 100 µM
- TGI (RXF 393 renal): > 100 µM
- GI50 (SF-268 CNS): > 100 µM
- TGI (SF-268 CNS): > 100 µM
- TGI (SF-295 CNS): > 100 µM
- GI50 (SF-539 CNS): > 100 µM
- TGI (SF-539 CNS): > 100 µM
- TGI (SK-MEL-2 melanoma): > 100 µM
- GI50 (SK-MEL-28 melanoma): > 100 µM
- TGI (SK-MEL-28 melanoma): > 100 µM
- TGI (SK-MEL-5 melanoma): > 100 µM
- TGI (SK-OV-3 ovarian): > 100 µM
- TGI (SN12C renal): 69.7 µM
- TGI (SNB-19 CNS): > 100 µM
- TGI (SNB-75 CNS): > 100 µM
- TGI (SR leukemia): > 100 µM
- TGI (SW-620 colon): > 100 µM
- TGI (T-47D breast): > 100 µM
- TGI (TK-10 renal): > 100 µM
- TGI (U251 CNS): > 100 µM
- TGI (UACC-257 melanoma): 26.7 µM
- TGI (UACC-62 melanoma): > 100 µM
- TGI (UO-31 renal): > 100 µM

Structure (SMILES): O=C1NC(=O)C(c2c[nH]c3cc(Br)ccc23)=C1c1cnc[nH]1
- TGI (786-0 renal): > 100 µM
- TGI (A498 renal): 52.2 µM
- TGI (A549 NSCLC): > 100 µM
- TGI (ACHN renal): > 100 µM
- TGI (BT-549 breast): 75 µM
- TGI (CAKI-1 renal): > 100 µM
- TGI (CCRF-CEM leukemia): > 100 µM
- TGI (COLO 205 colon): 63.2 µM
- TGI (DU-145 prostate): > 100 µM
- TGI (EKVX NSCLC): > 100 µM
- TGI (HCT-116 colon): > 100 µM
- TGI (HCT-15 colon): > 100 µM
- TGI (HL-60(TB) leukemia): 93.3 µM
- TGI (HOP-62 NSCLC): > 100 µM
- TGI (HOP-92 NSCLC): > 100 µM
- TGI (HS 578T breast): > 100 µM
- TGI (HT29 colon): > 100 µM
- TGI (IGROV1 ovarian): > 100 µM
- TGI (K-562 leukemia): > 100 µM
- TGI (KM12 colon): > 100 µM
- TGI (LOX IMVI melanoma): > 100 µM
- TGI (M14 melanoma): > 100 µM
- TGI (MALME-3M melanoma): > 100 µM
- TGI (MCF7 breast): > 100 µM
- TGI (MDA-MB-231 breast): > 100 µM
- TGI (MDA-MB-435): > 100 µM
- TGI (MDA-N): > 100 µM
- TGI (MOLT-4 leukemia): > 100 µM
- TGI (NCI-H226 lung): 7.87 µM
- TGI (NCI-H460 lung): > 100 µM
- TGI (NCI-H522 lung): 98.7 µM
- TGI (NCI/ADR-RES ovarian): > 100 µM
- TGI (OVCAR-3 ovarian): 81.4 µM
- TGI (OVCAR-4 ovarian): > 100 µM
- TGI (OVCAR-5 ovarian): > 100 µM
- TGI (OVCAR-8 ovarian): > 100 µM
- TGI (PC-3 prostate): > 100 µM
- TGI (RPMI-8226 leukemia): > 100 µM
- TGI (RXF 393 renal): > 100 µM
- TGI (SF-268 CNS): > 100 µM
- TGI (SF-295 CNS): > 100 µM
- TGI (SF-539 CNS): 72.6 µM
- TGI (SK-MEL-2 melanoma): 79.3 µM
- TGI (SK-MEL-28 melanoma): > 100 µM
- TGI (SK-MEL-5 melanoma): 25 µM
- TGI (SK-OV-3 ovarian): > 100 µM
- TGI (SN12C renal): > 100 µM
- TGI (SNB-19 CNS): > 100 µM
- TGI (SNB-75 CNS): > 100 µM
- TGI (SR leukemia): > 100 µM
- TGI (SW-620 colon): > 100 µM
- TGI (T-47D breast): > 100 µM
- TGI (TK-10 renal): > 100 µM
- TGI (U251 CNS): > 100 µM
- TGI (UACC-257 melanoma): 44.9 µM
- TGI (UO-31 renal): > 100 µM
